The values that follow come from patent publication US20230151057A1, “LACTIC ACID BACTERIA GROWTH PROMOTER” (Asahi Group Holdings, Ltd., priority 2020, published 2023).

Ends that are not written are not given here.

What all share (assay type): cell-based
One assay relates to Lactobacillus plantarum. The assay can be described thus: Growth-promoting effect on Lactobacillus plantarum in modified MRS medium (particle count). The following applies: Example 5, peptide 0.25 mg/mL, 37° C., 18 hours; for Rate of increase: control = 100%. The text has this: Nitrogen sources in MRS medium were reduced to find a medium composition that achieves a total bacterial count of about 1.0×10^8 cell/mL to 1.0×10^9 cell/mL after culturing of each of the six bacterial strains Lactobacillus gasseri (FERNM BP-11331), Lactobacillus acidophilus (FERM BP-4981), Lactobacillus amylovorus (FERM BP-11255), Lactobacillus curvatus (NITE P-02033), Lactobacillus plantarum, and Lactobacillus brevis. This composition, named “modified MRS medium”, was used for the evaluation. Here, for the composition of the MRS medium, a composition described in a medium catalog provided by BD (Becton, Dickinson and Company) was used as a reference. The compositions of the MRS medium and the modified MRS medium are as follows. By chemical synthesis, 28 kinds of candidate peptides having the sequences shown below were provided. Each candidate peptide was added to the modified MRS medium at 0.25 mg/mL to provide a medium to be evaluated. The lactic acid bacterium Lactobacillus gasseri was inoculated at 1.0×10^7 cells/mL to the provided medium to be evaluated, and culture was carried out at a temperature of 37° C. for a culture period of 18 hours. The resulting culture was collected, and subjected to measurement of the particle concentration (particles/mL) as a characteristic value that can be used as an index of the bacterial cell growth, using a particle count analyzer (CDA-1000, Sysmex). The rate of increase (%) was calculated relative to a control value obtained using a medium to which no peptide was added, which was taken as 100%. For eight kinds of candidate peptides having the sequences shown below, the growth-promoting effect on a lactic acid bacterium was evaluated in the same manner as in Example 1 except that Lactobacillus plantarum was used instead of Lactobacillus gasseri.

Assay [1] deals with Lactobacillus gasseri (FERM BP-11331). In words: Growth-promoting effect on Lactobacillus gasseri in modified MRS medium (particle count). The text has this: Nitrogen sources in MRS medium were reduced to find a medium composition that achieves a total bacterial count of about 1.0×10^8 cell/mL to 1.0×10^9 cell/mL after culturing of each of the six bacterial strains Lactobacillus gasseri (FERNM BP-11331), Lactobacillus acidophilus (FERM BP-4981), Lactobacillus amylovorus (FERM BP-11255), Lactobacillus curvatus (NITE P-02033), Lactobacillus plantarum, and Lactobacillus brevis. This composition, named “modified MRS medium”, was used for the evaluation. Here, for the composition of the MRS medium, a composition described in a medium catalog provided by BD (Becton, Dickinson and Company) was used as a reference. The compositions of the MRS medium and the modified MRS medium are as follows. By chemical synthesis, 28 kinds of candidate peptides having the sequences shown below were provided. Each candidate peptide was added to the modified MRS medium at 0.25 mg/mL to provide a medium to be evaluated. The lactic acid bacterium Lactobacillus gasseri was inoculated at 1.0×10^7 cells/mL to the provided medium to be evaluated, and culture was carried out at a temperature of 37° C. for a culture period of 18 hours. The resulting culture was collected, and subjected to measurement of the particle concentration (particles/mL) as a characteristic value that can be used as an index of the bacterial cell growth, using a particle count analyzer (CDA-1000, Sysmex). The rate of increase (%) was calculated relative to a control value obtained using a medium to which no peptide was added, which was taken as 100%. Using the dipeptide LF (Leu-Phe) and an equimolar mixture of leucine (L) and phenylalanine (F), culture was carried out in the same manner as in Example 1, and the growth-promoting effects of the dipeptide and the amino acid mixture on the lactic acid bacterium were evaluated. Using a dipeptide (LF) as the peptide, the growth-promoting effect on a lactic acid bacterium was evaluated in the same manner except that the concentration of the dipeptide added was 0.1 mg/mL, 0.25 mg/mL, or 1.0 mg/mL.

The next assay relates to Lactobacillus brevis. In words: Growth-promoting effect on Lactobacillus brevis in modified MRS medium (particle count). The following applies: Example 6, peptide 0.25 mg/mL, 37° C., 18 hours; for Rate of increase: control = 100%. The text has this: Nitrogen sources in MRS medium were reduced to find a medium composition that achieves a total bacterial count of about 1.0×10^8 cell/mL to 1.0×10^9 cell/mL after culturing of each of the six bacterial strains Lactobacillus gasseri (FERNM BP-11331), Lactobacillus acidophilus (FERM BP-4981), Lactobacillus amylovorus (FERM BP-11255), Lactobacillus curvatus (NITE P-02033), Lactobacillus plantarum, and Lactobacillus brevis. This composition, named “modified MRS medium”, was used for the evaluation. Here, for the composition of the MRS medium, a composition described in a medium catalog provided by BD (Becton, Dickinson and Company) was used as a reference. The compositions of the MRS medium and the modified MRS medium are as follows. By chemical synthesis, 28 kinds of candidate peptides having the sequences shown below were provided. Each candidate peptide was added to the modified MRS medium at 0.25 mg/mL to provide a medium to be evaluated. The lactic acid bacterium Lactobacillus gasseri was inoculated at 1.0×10^7 cells/mL to the provided medium to be evaluated, and culture was carried out at a temperature of 37° C. for a culture period of 18 hours. The resulting culture was collected, and subjected to measurement of the particle concentration (particles/mL) as a characteristic value that can be used as an index of the bacterial cell growth, using a particle count analyzer (CDA-1000, Sysmex). The rate of increase (%) was calculated relative to a control value obtained using a medium to which no peptide was added, which was taken as 100%. For eight kinds of candidate peptides having the sequences shown below, the growth-promoting effect on a lactic acid bacterium was evaluated in the same manner as in Example 1 except that Lactobacillus brevis was used instead of Lactobacillus gasseri.

Where [2] appears, read: Example 1, peptide 0.25 mg/mL, 37° C., 18 hours, inoculum 1.0×10^7 cells/mL.
[3] abbreviates: Example 1, peptide 0.25 mg/mL, 37° C., 18 hours, control without peptide = 100%.

Regarding AGPQTF, the Particle concentration in the assay with Lactobacillus plantarum turned out to be 3.36e+09 mL⁻¹; in assay [1] (setting [2]) it was 2.5e+08 mL⁻¹; in the assay with Lactobacillus brevis it was 1.16e+09 mL⁻¹. Further, the values for the Rate of increase (in the assay with Lactobacillus plantarum; in assay [1] (setting [3]); in the assay on Lactobacillus brevis) were 108%, 126% and 106%, respectively.
As to “APKPDYPIA (listed as Saccharomyces cerevisiae) [Ala-Pro-Lys-Pro-Asp-Tyr-Pro-Ile-Ala]”, the Particle concentration in the assay on Lactobacillus plantarum was 3.45e+09 mL⁻¹; in assay [1] (setting [2]), 2.37e+08 mL⁻¹; in the assay on Lactobacillus brevis, 1.12e+09 mL⁻¹. Moreover, the values for the Rate of increase (in the assay with Lactobacillus plantarum; in assay [1] (setting [3]); with Lactobacillus brevis) were 111%, 137% and 103%, respectively.
As for Leu-Phe [LF], the Particle concentration came out at 3.32e+09 mL⁻¹ with Lactobacillus plantarum; 3.88e+08 mL⁻¹ in assay [1] (Comparative Example 1, dipeptide vs equimolar amino acid mixture, cultured as in Example 1); 2.49e+08 mL⁻¹ in assay [1] (setting [2]); 2.38e+08 mL⁻¹ in assay [1] (Example 7, addition concentration 0.1 mg/mL); 2.49e+08 mL⁻¹ in assay [1] (Example 7, addition concentration 0.25 mg/mL); 3.17e+08 mL⁻¹ in assay [1] (Example 7, addition concentration 1.0 mg/mL). This substance also registered a Particle concentration with Lactobacillus brevis of 1.24e+09 mL⁻¹. Besides, the Rate of increase with Lactobacillus plantarum came to 107%; in assay [1] (Comparative Example 1, dipeptide vs equimolar amino acid mixture, control = 100%) it was 121%; in assay [1] (setting [3]) it was 118%; in assay [1] (Example 7, addition concentration 0.1 mg/mL, control = 100%), 112%; in assay [1] (Example 7, addition concentration 0.25 mg/mL, control = 100%), 118%; in assay [1] (Example 7, addition concentration 1.0 mg/mL, control = 100%), 150%. Moreover, the Rate of increase with Lactobacillus brevis came to 114%.
On to “Leu-Pro-Trp-Gly (LPWG; listed as Saccharomyces cerevisiae)”, for which the Particle concentration worked out at 3.09e+09 mL⁻¹ in the assay with Lactobacillus plantarum, 2.45e+08 mL⁻¹ in assay [1] (setting [2]) and 1.18e+09 mL⁻¹ in the assay on Lactobacillus brevis. The Rate of increase was 100% with Lactobacillus plantarum, 142% in assay [1] (setting [3]) and 108% in the assay on Lactobacillus brevis.
For “Pro-Ser-Val-Phe (PSVF; listed as Saccharomyces cerevisiae)”, the Particle concentration in the assay on Lactobacillus plantarum worked out at 3.17e+09 mL⁻¹; in assay [1] (setting [2]) it was 2.32e+08 mL⁻¹; in the assay with Lactobacillus brevis, 1.16e+09 mL⁻¹. In addition, the Rate of increase with Lactobacillus plantarum is on record as 102%; in assay [1] (setting [3]), 134%; in the assay on Lactobacillus brevis, 106%.
With Pro-Val-Phe [PVF], the Particle concentration turned out to be 2.92e+09 mL⁻¹ with Lactobacillus plantarum, 2.51e+08 mL⁻¹ in assay [1] (setting [2]) and 1.17e+09 mL⁻¹ with Lactobacillus brevis. For the same substance, the Rate of increase with Lactobacillus plantarum was 94%; in assay [1] (setting [3]), 137%; with Lactobacillus brevis, 107%.
On to Pro-Val-Tyr [PVY], for which the results for the Particle concentration (in the assay on Lactobacillus plantarum; in assay [1] (setting [2]); in the assay on Lactobacillus brevis) were 3.23e+09 mL⁻¹, 2.27e+08 mL⁻¹ and 1.17e+09 mL⁻¹, respectively. In addition, the Rate of increase in the assay on Lactobacillus plantarum was found to be 104%; in assay [1] (setting [3]), 121%; in the assay with Lactobacillus brevis, 107%.
As for “Val-Pro-Ala-Phe (VPAF; listed as Saccharomyces cerevisiae)”, the Particle concentration in the assay with Lactobacillus plantarum was 3.27e+09 mL⁻¹; in assay [1] (setting [2]), 2.62e+08 mL⁻¹; with Lactobacillus brevis, 1.16e+09 mL⁻¹. Moreover, the figures for the Rate of increase (in the assay on Lactobacillus plantarum; in assay [1] (setting [3]); in the assay on Lactobacillus brevis) were 105%, 152% and 106%, respectively.
